{"source": "PubChem BioAssay AID1963964", "about": "(Molecular Pharmacology Branch, DTP, NCI, 2024)", "system": "997726-040-R-J2-PDC tumor spheroids, viability", "experiment": "Anticancer human tumor 997726-040-R-J2-PDC patient-derived squamous cell lung carcinoma cell line growth inhibition [PI3K]", "settings": "spheroids with HUVEC and MSC; for pIC50: curve of first compound; for viability, T/C: stronger effect = lower value", "source_text": "Combinatorial screen of targeted agents with the PI3K inhibitors inavolisib, alpelisib, duvelisib, and copanlisib in multi-cell type tumor spheroids\nA high-throughput screen of multi-cell type tumor spheroids was designed to identify active combinations of targeted small molecules and PI3K pathway inhibitors. Complex spheroids include a stromal component modeled by human endothelial cells (HUVEC) and fibroblasts modeled by human mesenchymal stem cells (MSCs). The concentration ranges selected for each drug and investigational agent were based upon clinically achievable concentrations if the clinical Cmax of the agent was known.\nCompounds. The drugs and investigational agents: inavolisib (NSC800729), alpelisib (NSC765974), duvelisib (NSC772469), copanlisib (NSC816437), ipatasertib (NSC767898), afuresertib (NSC778305), talazoparib (NSC767125), sapanisertib (NSC764658), selumetinib (NSC741078), tovorafenib (DAY101, NSC766906), vemurafenib (NSC761431), ravoxertinib (NSC781343), sotorasib (NSC818433), MRTX1133 (NSC 836407), abemaciclib (NSC 768073), palbociclib (NSC758247), venetoclax (NSC 766270), SY5609 (NSC837396), enzalutamide (NSC755605), and darolutamide (NSC825331), were obtained from the National Cancer Institute (NCI) Developmental Therapeutics Program Chemical Repository. The FDA-approved anticancer drug set is available from the NCI Developmental Therapeutics Program. […] The stock solutions were prepared in dimethyl sulfoxide (DMSO, Sigma-Aldrich, St. Louis, MO, cat. D2650) at 800-fold the tested concentration and stored at -70 degrees C prior to their use. All drugs and investigational agents were tested over a range starting from a high concentration at or near the clinical Cmax and decreasing in half-log increments. If the clinical Cmax for an agent had not been determined, the highest concentration tested was 10 microM.\nCell Culture. All cells were maintained in an incubator at 37 degrees C and 5% CO2 with 95% humidity. The PDC lines were cultured according to standard operating procedures established by the NCI PDMR (https://pdmr.cancer.gov/sops/default.htm). All PDCs were thawed and cultured in Matrigel-coated flasks prepared with a working solution of 1X Ham's F-12 nutrient mix, without supplementation (Invitrogen, Waltham, MA, cat. 11765054), 100 U/mL penicillin-streptomycin (Invitrogen, cat. 15140122), and 2.5% Matrigel (Corning Inc., Corning, NY, cat. 354248) for the first three passages. The 354836-022-R-J1-PDC, 475296-252-R-J1-PDC, and 997726-040-R-J2-PDC lines were cultured in 6A media, which includes advanced DMEM/F-12 (Thermo Fisher Scientific, cat. 12634028), 10 mM HEPES (Thermo Fisher Scientific, cat. 15630080), 1X GlutaMAX supplement (Thermo Fisher Scientific, cat. 35050061), 0.1 mg/mL primocin (InvivoGen, San Diego, CA, cat. ant-pm-2), 10% defined fetal bovine serum, heat inactivated (HyClone Laboratories Inc., Logan, UT, cat. SH30070.03HI), 50% L-WRN conditioned media (ATCC, cat. CRL-3276), 1.25 mM N-Acetyl-L-cysteine (Sigma-Aldrich, cat. A9165), 10 mM nicotinamide (Sigma-Aldrich, cat. N0636), 1X B-27 supplement (Thermo Fisher Scientific, cat. 17504044), 1X N-2 supplement (Thermo Fisher Scientific, cat. 17502048), and 10 microM Y-27632 dihydrochloride (Tocris Bioscience, Bristol, United Kingdom, cat. 1254). The 624824-186-R-J2-PDC line was cultured in 6C/Colon 1B media, which includes all 6A media components plus 50 ng/mL human EGF recombinant protein (Thermo Fisher Scientific, cat. PHG0311). […]", "note": "pIC50: −log10 of the molar value.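 Further: spheroids exposed to compounds for seven days before readout.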"}
{"smiles": "C#Cc1c(F)ccc2cc(O)cc(-c3ncc4c(N5CC6CCC(C5)N6)nc(OCC56CCCN5CC(F)C6)nc4c3F)c12", "note": "(configuration not stated) + CC(Nc1ncnc2nc[nH]c12)c1cc2cccc(Cl)c2c(=O)n1-c1ccccc1", "values": [{"measurement": "pIC50", "setting": "second compound 0.0316 µM", "value": "< 5.00"}, {"measurement": "pIC50", "setting": "second compound 0.1 µM", "value": "< 5.00"}, {"measurement": "pIC50", "setting": "second compound 0.316 µM", "value": "< 5.00"}, {"measurement": "pIC50", "setting": "second compound 1 µM", "value": "< 5.00"}, {"measurement": "pIC50", "setting": "second compound 3.16 µM", "value": "< 5.00"}, {"measurement": "pIC50", "setting": "second compound 10 µM", "value": "> 7.50"}, {"measurement": "viability, T/C", "setting": "second compound 0.0316 µM, first compound 0.0316 µM", "value": 90.6, "unit": "%"}, {"measurement": "viability, T/C", "setting": "second compound 0.0316 µM, first compound 0.1 µM", "value": 99.3, "unit": "%"}, {"measurement": "viability, T/C", "setting": "second compound 0.0316 µM, first compound 0.316 µM", "value": 101, "unit": "%"}, {"measurement": "viability, T/C", "setting": "second compound 0.0316 µM, first compound 1 µM", "value": 85.7, "unit": "%"}, {"measurement": "viability, T/C", "setting": "second compound 0.0316 µM, first compound 3.16 µM", "value": 88.1, "unit": "%"}, {"measurement": "viability, T/C", "setting": "second compound 0.0316 µM, first compound 10 µM", "value": 96, "unit": "%"}, {"measurement": "viability, T/C", "setting": "second compound 0.1 µM, first compound 0.0316 µM", "value": 101, "unit": "%"}, {"measurement": "viability, T/C", "setting": "second compound 0.1 µM, first compound 0.1 µM", "value": 96.5, "unit": "%"}, {"measurement": "viability, T/C", "setting": "second compound 0.1 µM, first compound 0.316 µM", "value": 83.3, "unit": "%"}, {"measurement": "viability, T/C", "setting": "second compound 0.1 µM, first compound 1 µM", "value": 97.6, "unit": "%"}, {"measurement": "viability, T/C", "setting": "second compound 0.1 µM, first compound 3.16 µM", "value": 82.1, "unit": "%"}, {"measurement": "viability, T/C", "setting": "second compound 0.1 µM, first compound 10 µM", "value": 73.3, "unit": "%"}, {"measurement": "viability, T/C", "setting": "second compound 0.316 µM, first compound 0.0316 µM", "value": 97.1, "unit": "%"}, {"measurement": "viability, T/C", "setting": "second compound 0.316 µM, first compound 0.1 µM", "value": 103, "unit": "%"}, {"measurement": "viability, T/C", "setting": "second compound 0.316 µM, first compound 0.316 µM", "value": 98, "unit": "%"}, {"measurement": "viability, T/C", "setting": "second compound 0.316 µM, first compound 1 µM", "value": 94, "unit": "%"}, {"measurement": "viability, T/C", "setting": "second compound 0.316 µM, first compound 3.16 µM", "value": 95.7, "unit": "%"}, {"measurement": "viability, T/C", "setting": "second compound 0.316 µM, first compound 10 µM", "value": 61.5, "unit": "%"}, {"measurement": "viability, T/C", "setting": "second compound 1 µM, first compound 0.0316 µM", "value": 87.3, "unit": "%"}, {"measurement": "viability, T/C", "setting": "second compound 1 µM, first compound 0.1 µM", "value": 93.8, "unit": "%"}, {"measurement": "viability, T/C", "setting": "second compound 1 µM, first compound 0.316 µM", "value": 82.7, "unit": "%"}, {"measurement": "viability, T/C", "setting": "second compound 1 µM, first compound 1 µM", "value": 84.6, "unit": "%"}, {"measurement": "viability, T/C", "setting": "second compound 1 µM, first compound 3.16 µM", "value": 79.9, "unit": "%"}, {"measurement": "viability, T/C", "setting": "second compound 1 µM, first compound 10 µM", "value": 63.5, "unit": "%"}, {"measurement": "viability, T/C", "setting": "second compound 3.16 µM, first compound 0.0316 µM", "value": 71.6, "unit": "%"}, {"measurement": "viability, T/C", "setting": "second compound 3.16 µM, first compound 0.1 µM", "value": 68.3, "unit": "%"}, {"measurement": "viability, T/C", "setting": "second compound 3.16 µM, first compound 0.316 µM", "value": 61.4, "unit": "%"}, {"measurement": "viability, T/C", "setting": "second compound 3.16 µM, first compound 1 µM", "value": 72.3, "unit": "%"}, {"measurement": "viability, T/C", "setting": "second compound 3.16 µM, first compound 3.16 µM", "value": 65.3, "unit": "%"}, {"measurement": "viability, T/C", "setting": "second compound 3.16 µM, first compound 10 µM", "value": 57.7, "unit": "%"}, {"measurement": "viability, T/C", "setting": "second compound 10 µM, first compound 0.0316 µM", "value": 49.1, "unit": "%"}, {"measurement": "viability, T/C", "setting": "second compound 10 µM, first compound 0.1 µM", "value": 50.1, "unit": "%"}, {"measurement": "viability, T/C", "setting": "second compound 10 µM, first compound 0.316 µM", "value": 45.3, "unit": "%"}, {"measurement": "viability, T/C", "setting": "second compound 10 µM, first compound 1 µM", "value": 45.5, "unit": "%"}, {"measurement": "viability, T/C", "setting": "second compound 10 µM, first compound 3.16 µM", "value": 39.1, "unit": "%"}, {"measurement": "viability, T/C", "setting": "second compound 10 µM, first compound 10 µM", "value": 35.1, "unit": "%"}]}
